For series [1], the system named is hippocampal slices. Nature of the series: θ-burst Long-Term Potentiation (LTP) in acute hippocampal slices. It is filed as cell-based, rat. An excerpt:
Young adult (7-10 weeks old) male Wistar rats were sacrificed by decapitation under deep isoflurane anaesthesia. The brain was quickly removed, hemisected and both hippocampi were dissected free within ice-cold artificial cerebrospinal fluid (aCSF) (mM: NaCl 124; KCl 3; NaH2PO4 1.25; NaHCO326; MgSO4 1; CaCl2 2; and glucose 10), previously gassed with 95% O2 and 5% CO2, pH 7.4.
Slices (400 μm-thick) were cut perpendicularly to the long axis of the hippocampus with a McIlwain tissue chopper and allowed to recover for at least 60 min in a resting chamber, filled with the gassed aCSF, at room temperature (RT) (22-24° C.).
Hippocampal slices were incubated with vehicle or Aβ1-42 (200 nM) species (monomers, oligomers or fibrils) for 3 h at RT in gassed aCSF. We chose to perform slice incubation at RT, to avoid neuronal damage by hypoxic injury^27.
Slices were transferred to a submerging chamber (1 ml) and continuously superfused at a3 ml/min rate with gassed aCSF at 32° C. Perfusion tubes were coated with 0.1 mg/ml BSA prior to experiments to avoid adsorption of BDNF to the tubes^35. Evoked field excitatory postsynaptic potentials (fEPSP) were recorded extracellularly through a microelectrode filled with 4 M NaCl (2-8 MΩ resistance) placed in the stratum radiatum of the CA1 area, as previously described^34,35. One pathway of the Schaffer collateral/commissural fibers was stimulated (rectangular pulses of 0.1 ms duration) at every 15 s (for V/O curves, basal synaptic transmission and Paired-Pulse Facilitation (PPF) recordings) or every 20 s (for LTP recordings), by a bipolar concentric wire electrode placed on the Schaffer fibers in the stratum radiatum, in the CA1 area. The initial intensity of the stimulus was adjusted to obtain a submaximal fEPSP slope with a minimum population spike contamination, near one-fifth of the fEPSP slope obtained with supramaximal stimulation. The averages of eight consecutive fEPSPs were obtained and the slope of the initial phase of the potential was quantified. Recordings were obtained with an Axoclamp 2B amplifier (Axon Instruments, Foster City, CA), digitized and continuously stored on a personal computer with the LTP program 3. All the protocols detailed below were started only after a stable baseline of at least 20 minutes.
Long-Term Potentiation induction and saturation. A weak LTP-inducing θ-burst protocol consisting of four trains of 100 Hz, four stimuli, separated by 200 ms was used (4×4)^34,37. The intensity of the stimulus was never changed. LTP magnitude was quantified as the normalized change in the average slope of the fEPSP taken from 50 to 60 min after LTP induction in relation to the average slope of the fEPSP measured during the 10 min that preceded the induction of LTP.
For the experiments in FIG. 2, Brain-Derived Neurotrophic Factor (BDNF, 30 ng/ml) was added to the superfusing solution 20 min before the induction of LTP. Controls for these experiments were performed in different slices, without BDNF superfusion, on the same day. Generally, when testing BDNF effect on synaptic plasticity, two independent pathways of the same hippocampal slice are used, one serving as test and the other as internal control^35,38. However, because in the present experimental design slices were previously exposed to vehicle/Aβ for 3 h, we chose to test BDNF effect in different slices from the same rats. […]

Series [2] deals with hippocampal synaptosomes. As to the kind of experiment: [3H]glutamate release from hippocampal synaptosomes. The series is classed as cell-based, rat. The following applies: BDNF 30 ng/ml. On the procedure:
Isolation of Synaptosomes. The synaptosomal fraction from rat hippocampi was prepared as routinely in the lab^3. Hippocampal slices (male Wistar rats, 7-10 weeks old) were prepared and treated with vehicle or Aβ1-42, as described above. Then, slices were added to 5 ml of ice-cold isosmotic sucrose solution (0.32 M, containing 1 mM EDTA, 1 mg/ml BSA, 10 mM HEPES, pH 7.4), and homogenized in a Potter-Elvehjem homogenizer with a Teflon piston (four up-and-down strokes) and the volume completed to 10 ml with the sucrose solution. After a first centrifugation at 3,000 g for 10 min (Heraeus sepatech—Biofuge 28RS centrifuge with 3746 rotor), the supernatant was collected and centrifuged at 14,000 g for 12 min. The whole procedure was conducted at 4° C. The pellet was resuspended in 1 ml 45% Percoll in KHR solution consisting of (in mM) NaCl 140, EDTA 1, HEPES 10, KCl 5, and glucose 5, and centrifuged at 16,000 g for 2 min. The synaptosomal fraction corresponds to the top buoyant layer and was collected from the tube. Percoll was removed by two washes with 1 ml KHR solution centrifuged at 16,000 g for 2 min each; synaptosomes were then kept on ice and used within 3 hours. The synaptosomal protein concentration was assayed using the Bio-Rad DC™ protein assay and BSA as standard.
[^3H]Glutamate Release from Hippocampal Synaptosomes. [3H]Glutamate release from hippocampal synaptosomes was performed as routinely in the lab^39. […]
Calculation of drug effects on glutamate release. At the end of each experiment, aliquots (500 μl) of each sample as well as the filters from each superfusion chamber were analyzed by liquid scintillation counting. The fractional release was expressed as the percentage of total radioactivity present in the synaptosomes at each time point. The amount of radioactivity released by each pulse of K^+ (S1 and S2) was calculated by integration of the area of the peak upon subtraction of the estimated basal tritium release. […]

Experimental findings from patent US20230321189A1, “THERAPEUTIC AGENTS, PHARMACEUTICAL COMPOSITIONS, AND ASSOCIATED BIOMARKERS BASED ON TRK-B” (INSTITUTO DE MEDICINA MOLECULAR JOÃO LOBO ANTUNES, priority 2020, published 2023) are described below.

Take “TrkB-Fc: recombinant human TrkB/Fc chimera, BDNF's scavenger [reference compound]”: in series [1] (TrkB-Fc 2 μg/ml superfused from 30 min before LTP induction, TAT-TrkB 20 μM, P<0.05), the “effect on LTP in slices exposed to Aβ oligomers and TAT-TrkB” value is on record as “counteracts the effect of TAT-TrkB on LTP reestablishment”.
Turning to “BDNF: Brain-derived Neurotrophic Factor, supplied by Regeneron Pharmaceuticals”, in series [2] (Aβ 200 nM monomers or fibrils, P<0.05), the “BDNF effect on glutamate release after Aβ1-42 monomeric or fibrillar species” value is listed as “preserved”. Further, in series [2] (Aβ 200 nM oligomers, P>0.05), the “BDNF effect on glutamate release after Aβ1-42 oligomeric species” value was “impaired”. The “glutamate release, control conditions” value in series [2] (P<0.01) is listed as “boosted”. Also, the “LTP magnitude, control conditions” value in series [1] (BDNF 30 ng/ml) is listed as “boosted”. In series [1] (BDNF 30 ng/ml, Aβ 200 nM monomers or fibrils, P<0.05), the “BDNF effect on LTP after Aβ1-42 monomeric or fibrillar species” value is recorded as “preserved”. The “BDNF effect on LTP after Aβ1-42 oligomeric species” value in series [1] (BDNF 30 ng/ml, Aβ 200 nM oligomers, P>0.05) is given as “impaired”. Also, the “effect of exogenous BDNF on LTP in slices exposed to TAT-TrkB and Aβ oligomers” value in series [1] (BDNF 30 ng/ml, TAT-TrkB 20 μM, Aβ 200 nM, P>0.05) is listed as “did not boost LTP further”.
